Laboratory results reported in patent US7476673B2, “Disubstituted chalcone oximes as selective agonists of RARγ retinoid receptors” (Allergan, Inc., priority 2003, dated 2009).

Experiments:
[1] = system: RARγ; test: chimeric receptor transactivation assay, RARγ; type: cell-based; conditions: judged from Table 1 data, versus RARα and RARβ
Procedure: (§1) The compounds of the invention were tested in certain assays for activity as agonists of RAR and RXR retinoid receptors. Specifically, one such assay is a chimeric receptor transactivation assay which tests for agonist-like activity in the RARα, RARβ and RARγ receptor subtypes, and which is based on work published by Feigner P. L. and Holm M. (1989) Focus, 112 is described in detail in U.S. Pat. No. 5,455,265. The specification of U.S. Pat. No. 5,455,265 is hereby expressly incorporated by reference.
(§2) A holoreceptor transactivation assay and a ligand binding assay which measure the antagonist/agonist like activity of the compounds of the invention, or their ability to bind to the several retinoid receptor subtypes, respectively, are described in published PCT Application No. WO WO93/11755 (particularly on pages 30-33 and 37-41) published on Jun. 24, 1993, the specification of which is also incorporated herein by reference. A detailed experimental procedure for holoreceptor transactivations has been described by Heyman et al. Cell 68, 397-406, (1992); Allegretto et al. J. Biol. Chem. 268, 26625-26633, and Mangelsdorf et al. The Retinoids: Biology, Chemistry and Medicine, pp 319-349, Raven Press Ltd., New York, which are expressly incorporated herein by reference. The results obtained in this assay are expressed in EC50 numbers, as they are also in the chimeric receptor transactivation assay. The results of the ligand binding assay are expressed in Ki numbers. (See Cheng et al. Biochemical Pharmacology Vol. 22 pp 3099-3108, expressly incorporated herein by reference.)
(§3) Efficacy in a transactivation assay is expressed as a percentage of the maximum potency attained by the compound compared to a standard which, in this case, is the compound 4-[(1E)-2-(5,6,7,8-tetrahydro-5,5,8,8-tetramethyl-2-naphthalenyl)-1-propenyl]-benzoic acid. (TTNPB) This standard compound is described in PCT Publication WO 2002077169 A2.
(§4) Table 1 discloses the activity of certain exemplary compounds of the invention in the above-described chimeric RAR receptor transactivation and binding assays.

[2] = target: T1, RARγ (Homo sapiens, UniProt P13631); test: chimeric receptor transactivation assay, RARγ; type: cell-based; conditions: for EC50: chimeric receptor transactivation, read-out: RAR EC50 γ; for % Efficiency γ: percentage of maximum compared to standard TTNPB
T1 construct: % Efficiency γ; other: percentage of maximum compared to standard TTNPB
T1 sequence (P13631 185-454 limits assumed): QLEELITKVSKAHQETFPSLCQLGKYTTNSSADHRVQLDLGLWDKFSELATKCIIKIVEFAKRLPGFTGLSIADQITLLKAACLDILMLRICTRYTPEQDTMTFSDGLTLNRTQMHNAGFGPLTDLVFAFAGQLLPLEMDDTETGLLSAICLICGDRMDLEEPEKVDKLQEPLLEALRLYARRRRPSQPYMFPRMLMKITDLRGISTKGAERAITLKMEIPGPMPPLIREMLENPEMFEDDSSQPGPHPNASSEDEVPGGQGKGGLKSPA
Procedure: as §1, §2, §3, §4

[3] = target: T2, RARα (Homo sapiens, UniProt P10276); test: chimeric receptor transactivation assay, RARα; type: cell-based; conditions: for EC50: chimeric receptor transactivation, read-out: RAR EC50 α; for % Efficiency α: percentage of maximum compared to standard TTNPB
T2 sequence (P10276 183-417 limits assumed): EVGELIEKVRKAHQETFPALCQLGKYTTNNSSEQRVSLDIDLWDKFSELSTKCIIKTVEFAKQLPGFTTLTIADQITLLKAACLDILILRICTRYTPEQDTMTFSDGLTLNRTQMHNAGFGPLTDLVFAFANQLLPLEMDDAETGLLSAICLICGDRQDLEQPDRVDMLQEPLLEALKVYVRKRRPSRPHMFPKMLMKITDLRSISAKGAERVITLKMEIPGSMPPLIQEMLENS
Procedure: as §1, §2, §3, §4

[4] = target: T3, RARβ (Homo sapiens, UniProt P10826); test: chimeric receptor transactivation assay, RARβ; type: cell-based; conditions: for EC50: chimeric receptor transactivation, read-out: RAR EC50 β; for % Efficiency β: percentage of maximum compared to standard TTNPB
T3 sequence (P10826 183-455 limits assumed): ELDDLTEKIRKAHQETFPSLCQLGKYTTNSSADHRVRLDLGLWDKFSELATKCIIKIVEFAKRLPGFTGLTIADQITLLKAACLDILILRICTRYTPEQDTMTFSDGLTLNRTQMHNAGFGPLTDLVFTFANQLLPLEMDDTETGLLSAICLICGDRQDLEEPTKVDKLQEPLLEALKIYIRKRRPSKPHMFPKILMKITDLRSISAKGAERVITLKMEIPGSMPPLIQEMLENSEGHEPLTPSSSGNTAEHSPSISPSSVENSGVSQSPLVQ
Procedure: as §1, §2, §3, §4

[5] = target: T4, RARα (Homo sapiens, UniProt P10276); test: ligand binding assay, RARα; conditions: results expressed in Ki numbers, read-out: RAR Binding α
T4 sequence (P10276 1-462): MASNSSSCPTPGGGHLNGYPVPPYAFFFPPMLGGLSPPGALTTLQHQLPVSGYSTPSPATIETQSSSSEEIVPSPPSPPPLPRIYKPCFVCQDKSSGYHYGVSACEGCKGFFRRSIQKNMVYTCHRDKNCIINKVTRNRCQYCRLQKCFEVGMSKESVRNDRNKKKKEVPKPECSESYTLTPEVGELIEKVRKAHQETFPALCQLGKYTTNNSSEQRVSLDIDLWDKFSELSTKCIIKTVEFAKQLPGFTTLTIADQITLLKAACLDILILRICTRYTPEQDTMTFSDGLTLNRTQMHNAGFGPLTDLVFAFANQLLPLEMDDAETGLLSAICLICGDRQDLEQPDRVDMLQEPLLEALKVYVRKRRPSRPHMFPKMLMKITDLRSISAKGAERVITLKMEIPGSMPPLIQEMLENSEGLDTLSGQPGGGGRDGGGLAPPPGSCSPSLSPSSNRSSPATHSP
Text: as §2, §4

[6] = target: T5, RARβ (Homo sapiens, UniProt P10826); test: ligand binding assay, RARβ; conditions: results expressed in Ki numbers, read-out: RAR Binding β
T5 sequence (P10826 1-455): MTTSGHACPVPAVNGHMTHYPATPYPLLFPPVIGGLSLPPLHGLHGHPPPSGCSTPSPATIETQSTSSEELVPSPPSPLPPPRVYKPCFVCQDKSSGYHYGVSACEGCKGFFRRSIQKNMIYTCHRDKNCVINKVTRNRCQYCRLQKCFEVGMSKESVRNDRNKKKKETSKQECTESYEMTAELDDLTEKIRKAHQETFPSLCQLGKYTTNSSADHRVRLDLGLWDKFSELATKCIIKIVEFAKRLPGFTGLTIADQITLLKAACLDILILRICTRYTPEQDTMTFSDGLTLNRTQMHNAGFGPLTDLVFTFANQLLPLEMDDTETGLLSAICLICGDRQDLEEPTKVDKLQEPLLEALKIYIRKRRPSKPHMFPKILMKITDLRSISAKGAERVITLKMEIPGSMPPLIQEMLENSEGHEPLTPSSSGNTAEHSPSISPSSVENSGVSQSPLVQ
Text: as §2, §4

[7] = target: T6, RARγ (Homo sapiens, UniProt P13631); test: ligand binding assay, RARγ; conditions: results expressed in Ki numbers, read-out: RAR Binding γ
T6 sequence (P13631 1-454): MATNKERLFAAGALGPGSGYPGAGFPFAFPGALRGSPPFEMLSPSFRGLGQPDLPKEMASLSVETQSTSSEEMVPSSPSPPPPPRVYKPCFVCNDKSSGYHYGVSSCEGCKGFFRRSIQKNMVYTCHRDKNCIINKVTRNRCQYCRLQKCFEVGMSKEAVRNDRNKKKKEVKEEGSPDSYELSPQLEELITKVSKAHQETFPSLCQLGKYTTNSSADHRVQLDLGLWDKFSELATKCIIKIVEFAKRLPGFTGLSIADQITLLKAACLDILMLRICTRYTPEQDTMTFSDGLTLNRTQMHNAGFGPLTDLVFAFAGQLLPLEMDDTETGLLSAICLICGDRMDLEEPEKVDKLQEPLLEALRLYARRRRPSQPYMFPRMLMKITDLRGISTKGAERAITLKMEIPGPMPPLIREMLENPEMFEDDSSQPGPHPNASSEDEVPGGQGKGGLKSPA
Text: as §2, §4

Cc1cc2c(cc1C(/C=C\c1ccc(C(=O)O)cc1)=NO)C(C)(C)CCC2(C)C [Compound 9b, Z4-[3-hydroxyimino-3-(3,5,5,8,8-pentamethyl-5,6,7,8-tetrahydro-naphthalen-2-yl)-propenyl]-benzoic acid]
selectivity to the RARγ receptors [1]: less selective

COc1cc2c(cc1C(/C=C/c1ccc(C(=O)O)cc1)=NO)C(C)(C)CCC2(C)C [Compound 13a, E-4-[3-Hydroxyimino-3-(3-methoxy-5,5,8,8-tetramethyl-5,6,7,8-tetrahydro-naphthalen-2-yl)-propenyl]-benzoic acid]
selectivity to the RARγ receptors [1]: less selective

CC1(C)CCCc2cc(C(C=Cc3ccc(C(=O)O)cc3)=NO)ccc21 [drawing 17]
EC50 [2]: 204 nM
% Efficiency γ [2]: 65%
EC50 [3]: 12000 nM
% Efficiency α [3]: 42%
EC50 [4]: 173 nM
% Efficiency β [4]: 60%
Ki [5]: 12000 nM
Ki [6]: 31000 nM
Ki [7]: 27000 nM

CC1(C)CCC(C)(C)c2cc(C(C=Cc3ccc(C(=O)O)cc3F)=NO)ccc21 [drawing 10]
EC50 [2]: 0.11 nM
% Efficiency γ [2]: 84%
EC50 [3]: > 1000 nM
EC50 [4]: 53 nM
% Efficiency β [4]: 84%
Ki [5]: 8000 nM
Ki [6]: 5000 nM
Ki [7]: 4 nM

CC1=CCC(C)(C)c2cc(C(/C=C/c3ccc(C(=O)O)cc3F)=N\O)ccc21
EC50 [2]: 11 nM
% Efficiency γ [2]: 90%
EC50 [3]: > 1000 nM
EC50 [4]: 445 nM
% Efficiency β [4]: 92%
Ki [5]: 18000 nM
Ki [6]: 11000 nM
Ki [7]: 28 nM

CCCCCCCN1C(=O)CC(C)(C)c2cc(C(/C=C/c3ccc(C(=O)O)cc3)=N\O)ccc21
EC50 [2]: 92 nM
% Efficiency γ [2]: 35%
EC50 [3]: > 1000 nM
EC50 [4]: 473 nM
% Efficiency β [4]: 23%
Ki [5]: 17000 nM
Ki [6]: 9000 nM
Ki [7]: 32 nM

Cc1cc2c(cc1C(C=Cc1ccc(C(=O)O)cc1)=NO)C(C)(C)CCC2(C)C [drawing 37]
EC50 [2]: 35 nM
% Efficiency γ [2]: 67%
EC50 [3]: > 1000 nM
EC50 [4]: 157 nM
% Efficiency β [4]: 14%
Ki [5]: 8000 nM
Ki [6]: 28000 nM
Ki [7]: 1850 nM

CC1(C)CCCc2ccc(C(/C=C/c3ccc(C(=O)O)cc3F)=N\O)cc21
EC50 [2]: 14 nM
% Efficiency γ [2]: 123%
EC50 [3]: 345 nM
% Efficiency α [3]: 120%
EC50 [4]: 4060 nM
% Efficiency β [4]: 95%
Ki [5]: 2100 nM
Ki [6]: 7000 nM
Ki [7]: 132 nM

Cc1cc2c(cc1C(C=Cc1ccc(C(=O)O)cc1)=NO)C(C)(C)CCC2(C)C [drawing 36]
EC50 [2]: 23 nM
% Efficiency γ [2]: 48%
EC50 [3]: > 1000 nM
EC50 [4]: 3440 nM
% Efficiency β [4]: 41%
Ki [5]: 8000 nM
Ki [6]: 17000 nM
Ki [7]: 583 nM

Cc1cc2c(cc1C(/C=C/c1ccc(C(=O)O)cc1)=NO)C(C)(C)CCC2(C)C [Compound 9a, E-4-[3-Hydroxyimino-3-(3,5,5,8,8-pentamethyl-5.6,7,8-tetrahydro-naphthalen-2-yl)-propenyl]-benzoic acid]
selectivity to the RARγ receptors [1]: less selective

CC1(C)CCCc2ccc(C(C=Cc3ccc(C(=O)O)cc3)=NO)cc21 [drawing 12]
EC50 [2]: 0.09 nM
% Efficiency γ [2]: 97%
EC50 [3]: 2120 nM
% Efficiency α [3]: 51%
EC50 [4]: 65 nM
% Efficiency β [4]: 106%
Ki [5]: 6000 nM
Ki [6]: 1200 nM
Ki [7]: 5 nM

COc1cc2c(cc1C(/C=C/c1ccc(C(=O)O)cc1)=N/O)C(C)(C)CCC2(C)C
EC50 [2]: 19 nM
% Efficiency γ [2]: 98%
EC50 [3]: 80000 nM
% Efficiency α [3]: 29%
EC50 [4]: 1270 nM
% Efficiency β [4]: 65%
Ki [5]: 2000 nM
Ki [6]: 2500 nM
Ki [7]: 648 nM
